# Experimental data published in patent US8420100B2, “Tumor suppressor activating polypeptides and uses thereof” (Department of Biotechnology, priority 2006, dated 2013).
# Entries after “also recorded” stand apart in the source; their conditions may differ.
# Experiments:
# HIF-1α = experiment: Immunohistochemical staining of tumor sections for HIF-1α; assay type: in vivo, mouse; details: tumors excised from treated mice
# From the text: (§1) Histopathological changes in the subcutaneous tumors: To analyze the tumor vasculature of TAT PTD, SM treated and P44 treated mice, the tumor sections were stained with HE. […] In SM treated tumors, due to compressed vessels, the shape of RBCs were also distorted (FIG. 7A, lower right panel, arrow marked). […] The presence of hypoxic cells is a hallmark of cancer (Brown, J. M., and Wilson, W. R. (2004) Nat. Rev. Cancer 4, 437-447; Minchinton, A. I., and Tannock, I. F. (2006) Nat. Rev. Cancer 6, 583-592). Cellular responses to hypoxia are triggered by the hypoxia inducible factor-1 alpha (HIF-1α) that is known to restore tissue homeostasis in hypoxic conditions (Semenza, G. L. (2000) Genes Dev. 14, 1983-1991). To determine the status of HIF-1α expression, immunohistochemical analysis was performed on tumor sections obtained from SM and P44 treated mice by using antibody against HIF-1 α. […] All these observations implicate the significance of P44 peptide in restoring tissue architecture in tumor cells and thus potentiates its role as a tumor regressor.
# (§2) FIG. 7. Histopathological changes in B16F1-induced tumors. A, Hematoxylin and eosin staining of tumor sections excised from mice treated with either P44 (upper panel) or SM (lower panel) peptide. […] The images have been recorded at 20× and 40×. B, Immunohistochemistry of paraffin embedded tumor sections from P44 treated as well as, SM treated mice. After antigen unmasking, sections were stained with HIF-1α antibody (middle panel) and detected using Cy-3 conjugated mouse immunoglobulin. Sections were counterstained with DAP1 for nuclear localization (left panel). Right panel corresponds to the merged image.
# Immunohistochemical staining of tumor sections: Tumor sections in paraffin-embedded blocks were transferred to poly-L-lysine coated glass slides and air-dried overnight at 37° C. They were dewaxed in xylene (three changes) and […] in graded series of decreasing ethanol concentrations. […] Thereafter, detected using cy-3 fluorescence labeled secondary antibody. […]
# [1] = test system: tumor vasculature of B16F1-induced tumors; experiment: Hematoxylin and eosin histopathology of B16F1-induced tumors; assay type: in vivo, mouse; details: tumors excised from treated mice
# From the text: as §1, §2
# [2] = test system: B16F1 mouse melanoma cells; experiment: B16F1 melanoma tumor regression in nude mice; assay type: in vivo; details: for anti-tumorigenic activity (tumor regression): xenograft tumor nude mice model
# Procedure: P44 peptide: A potent tumor regressor: To test whether the differences in SMAR1 derived peptide-induced activation of p53 translated to differences in drug sensitivity in vivo, B16F1 mouse melanoma cells were subcutaneously grafted into athymic nude mice, and tumor growth together with therapeutic sensitivity was monitored. Once the tumor nodule was established into the mouse, P44 peptide was injected in the tumor localized areas at a physiological dose of 200 μg/mouse thrice a week. The treatment was continued for 4 weeks. In a parallel experiment, either TAT PTD or TAT-SMAR1 RS mutant peptide, SM (FIGS. 6A and B, respectively) was injected in tumor bearing mice to be used as control.
# FIG. 6D-F corresponds to the magnified tumor images of FIG. 6A-C, respectively. […] Thus, P44 peptide mimics the function of full-length SMAR1 in drastically reducing the tumor growth.
# FIG. 6. Tumor regression by TAT-SMAR1 WT peptide. A, Nude mice were allowed to develop tumors by subcutaneously injecting B 16F1 mouse melanoma cells. Mice with size-matched tumors were then randomized into three treatment groups (five animals per group); TAT PTD alone (panel A), TAT-SMART RS mutant (SM) (panel B) and TAT-SMAR1 WT (P44) (panel C). Panels D, E and F correspond to the magnified images of panels A, B and C, respectively. Mice were treated with either of the peptides at a dose of 200 μg/mice/thrice a week for consecutive 4 weeks. The tumors were then weighed and plotted for each mouse in all the treatment groups (panel G).
# Animal model for tumorgenesis: B16F1 mouse melanoma cells in the exponential growth phase were trypsinized (Invitrogen) and washed twice with PBS. Cell number and viability was assessed and cell cultures with viability >90% were used. Tumors were then established in nude mice by subcutaneous injection of 2×10^6 B16F1 cells. Five mice were used in each set of experiments. The mice were maintained under pathogen-free conditions. When the subcutaneous tumor was clearly visible, the TAT-SMAR1 WT (P44) peptide treatment was started. The P44 peptide was subcutaneously injected proximal to the tumor sites at a dose of 200 μg/mouse thrice a week. The treatment was administered for 4 weeks. For control treatment, TAT PTD alone and TAT SMAR1 RS mutant peptide (SM) were injected in the same manner as the P44 peptide.
# [3] = test system: cell cycle regulatory genes; experiment: Microarray gene expression upon P44 treatment; assay type: cell-based
Sequence,HIF-1α expression in tumor sections (HIF-1α),inter-vessel distance compared to SM-treated tumors [1],tumor vascular architecture (HE staining) [1],"regression in tumor compared to TAT-injected or SM injected mice ([2]; nude mice, 200 μg/mouse thrice a week, 4 weeks, injected at tumor site)",anti-tumorigenic activity (tumor regression) [2],"expression of genes involved in regulating mitosis, MAPK signaling and cell cycle checkpoints [3]",expression of proteins involved in ubiquitin-proteasome signaling [3],"tumor weight after excision ([2]; nude mice, 200 μg/mouse thrice a week, 4 weeks)"
"YGRKKRRQRRRTAWRRKQRGQSLAVKSFSRRTPSSSSYSASETM [P44, 33 mer SMAR1 peptide (residues 324-357) conjugated with 11-mer TAT-PTD]",no detectable level of HIF-1α,significantly less,intact vasculature,5-7 fold,strongly regressed tumors,significant decreased expression,reduced expression,–
"YGRKKRRQRRRTAWRRKQRGQSLAVKSFSRRTPAAAAYSASETM [SM, P44 mutant where serine residues from 347-350 were replaced by alanines]",increased HIF-1 α expression,–,leaky vascular architecture; also recorded: poorly organized vascular architecture and compressed blood vessels,–,significantly reduced,–,–,1.2 to 2.5 g
